Experimental data as given in PubChem BioAssay AID248 (DTP/NCI, 2004).
Several values for one entry are separate records, joined by “and”; a condition that tells them apart may be missing. Identical values can stand only once. Toxic doses and inconclusive results are not listed. No stated cut-off is given here; in the data, active means T/C of 150% or more; inactive means T/C below 125%.

Test system: L1210 leukemia ip in BDF1 mice, survival T/C
Experiment: NCI In Vivo Anticancer Drug Screen. Data for tumor model L1210 Leukemia (intraperitoneal) in B6D2F1 (BDF1) mice
Conditions: endpoint: mean survival time, higher = longer survival
In short: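 In this screen, tumor-bearing mice given compound are compared to those given vehicle, and their survival values are reported as a treated-to-control quotient.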

[1] = dose: 44.0 mg/kg/injection, schedule: Q01DX Z (ip), vehicle: methylcellulose (MC)
[2] = dose: 66.0 mg/kg/injection, schedule: Q01DX Z (ip), vehicle: methylcellulose (MC)
[3] = dose: 100.0 mg/kg/injection, schedule: Q01DX Z (ip), vehicle: methylcellulose (MC)
[4] = dose: 100.0 mg/kg/injection, schedule: Q01DX009 (ip), vehicle: saline
[5] = dose: 100.0 mg/kg/injection, schedule: Q04DX003 (ip), vehicle: Klucel (hydroxypropylcellulose) (HPC)
[6] = dose: 200.0 mg/kg/injection, schedule: Q01DX009 (ip), vehicle: saline
[7] = dose: 200.0 mg/kg/injection, schedule: Q04DX003 (ip), vehicle: Klucel (hydroxypropylcellulose) (HPC)
[8] = dose: 400.0 mg/kg/injection, schedule: Q04DX003 (ip), vehicle: Klucel (hydroxypropylcellulose) (HPC)
[9] = dose: 75.0 mg/kg/injection, schedule: Q01DX001 (ip), vehicle: saline
[10] = dose: 100.0 mg/kg/injection, schedule: Q04DX003 (ip), vehicle: saline with Tween-80
[11] = dose: 200.0 mg/kg/injection, schedule: Q04DX003 (ip), vehicle: saline with Tween-80
[12] = dose: 400.0 mg/kg/injection, schedule: Q04DX003 (ip), vehicle: saline with Tween-80
[13] = dose: 50.0 mg/kg/injection, schedule: Q01DX009 (ip), vehicle: saline
[14] = dose: 100.0 mg/kg/injection, schedule: Q01DX001 (ip), vehicle: saline
[15] = dose: 200.0 mg/kg/injection, schedule: Q01DX001 (ip), vehicle: saline
[16] = dose: 400.0 mg/kg/injection, schedule: Q01DX001 (ip), vehicle: saline
[17] = dose: 50.0 mg/kg/injection, schedule: Q01DX001 (ip), vehicle: saline

Measured: T/C

Cc1ccc([N+](=O)[O-])cc1NC(=O)NCc1ccccc1
inactive: dose: 100.0 mg/kg/injection, schedule: Q01DX009 (ip), vehicle: Klucel (hydroxypropylcellulose) (HPC) 89 % of control | dose: 200.0 mg/kg/injection, schedule: Q01DX009 (ip), vehicle: Klucel (hydroxypropylcellulose) (HPC) 89 % of control | dose: 400.0 mg/kg/injection, schedule: Q01DX009 (ip), vehicle: Klucel (hydroxypropylcellulose) (HPC) 97 % of control

CCCCC(CC)C(=O)C(CCN(C)C)(c1ccccc1)c1ccccn1 (centres undefined)
inactive: [1] 101 % of control | [2] 97 % of control | [3] 96 % of control

O=C(NCCCl)Nc1ccc(O)cc1
inactive: [4] 101 % of control | [5] 98 % of control | [6] 105 % of control | [7] 94 % of control | dose: 400.0 mg/kg/injection, schedule: Q01DX009 (ip), vehicle: saline 90 % of control | [8] 100 % of control

O=C(O)C(Cl)C(=O)O
inactive: dose: 4.68 mg/kg/injection, schedule: Q01DX009 (ip), vehicle: saline 102 % of control | dose: 9.37 mg/kg/injection, schedule: Q01DX009 (ip), vehicle: saline 102 % of control | dose: 18.75 mg/kg/injection, schedule: Q01DX009 (ip), vehicle: saline 94 % of control | dose: 18.75 mg/kg/injection, schedule: Q04DX003 (ip), vehicle: saline 105 % of control | dose: 37.5 mg/kg/injection, schedule: Q04DX003 (ip), vehicle: saline 97 % of control | [9] 107 % of control

Cc1ccc2[c](c1)[Sn]([c]1ccccc1)([c]1ccccc1)[c]1cc(C)ccc1N2C
inactive: dose: 100.0 mg/kg/injection, schedule: Q01DX001 (ip), vehicle: steriod suspending solution 96 % of control | dose: 200.0 mg/kg/injection, schedule: Q01DX001 (ip), vehicle: steriod suspending solution 94 % of control | dose: 400.0 mg/kg/injection, schedule: Q01DX001 (ip), vehicle: steriod suspending solution 96 % of control

CCNS(=O)(=O)c1ncnc2nc[nH]c12
inactive: dose: 44.0 mg/kg/injection, schedule: Q01DX Z (ip), vehicle: carboxymethylcellulose (CMC) 117 % of control | [1] 98 % of control | dose: 66.0 mg/kg/injection, schedule: Q01DX Z (ip), vehicle: carboxymethylcellulose (CMC) 123 % of control | [2] 102 % of control | [3] 106 % of control | dose: 150.0 mg/kg/injection, schedule: Q01DX Z (ip), vehicle: methylcellulose (MC) 102 % of control

O=S(=O)(C/C=C/COc1ccccc1)c1ccc2ccccc2c1
inactive: dose: 75.0 mg/kg/injection, schedule: Q01DX001 (ip), vehicle: Klucel (hydroxypropylcellulose) (HPC) 104 % of control | dose: 75.0 mg/kg/injection, schedule: Q01DX009 (ip), vehicle: Klucel (hydroxypropylcellulose) (HPC) 102 % of control | dose: 150.0 mg/kg/injection, schedule: Q01DX001 (ip), vehicle: Klucel (hydroxypropylcellulose) (HPC) 94 % of control | dose: 150.0 mg/kg/injection, schedule: Q01DX009 (ip), vehicle: Klucel (hydroxypropylcellulose) (HPC) 96 % of control | dose: 300.0 mg/kg/injection, schedule: Q01DX001 (ip), vehicle: Klucel (hydroxypropylcellulose) (HPC) 113 % of control | dose: 300.0 mg/kg/injection, schedule: Q01DX009 (ip), vehicle: Klucel (hydroxypropylcellulose) (HPC) 98 % of control

CC(C)CC(NC(=O)C(F)(F)F)C(=O)O (centres undefined)
inactive: [10] 97 % of control | [11] 90 % of control

CCCCCCCCC(=O)NCc1cccc(OC)c1
inactive: [5] 95 % of control | [7] 95 % of control | [8] 105 % of control

CCCCCCCCN1N=CC(CC)C1CCC (centres undefined)
inactive: dose: 50.0 mg/kg/injection, schedule: Q01DX001 (ip), vehicle: carboxymethylcellulose (CMC) 105 % of control | dose: 100.0 mg/kg/injection, schedule: Q01DX001 (ip), vehicle: carboxymethylcellulose (CMC) 88 % of control | dose: 200.0 mg/kg/injection, schedule: Q01DX001 (ip), vehicle: carboxymethylcellulose (CMC) 92 % of control

COc1cc(C)c(NC(=O)Oc2ccccc2)c(C)c1
inactive: [10] 89 % of control | [11] 91 % of control | [12] 91 % of control

O=C(O)C(O)c1ccc(Cl)cc1 (centres undefined)
inactive: [4] 96 % of control | [6] 91 % of control

O=C(CCl)Nc1ccc(N=Nc2ccccc2)cc1
inactive: dose: 25.0 mg/kg/injection, schedule: Q01DX009 (ip), vehicle: Klucel (hydroxypropylcellulose) (HPC) 90 % of control | dose: 50.0 mg/kg/injection, schedule: Q01DX009 (ip), vehicle: Klucel (hydroxypropylcellulose) (HPC) 90 % of control

CC(=O)Oc1c2cccc3c(=O)c4cccc5c4-c(c23)c2c1cccc2c5=O
inactive: [10] 95 % of control | [11] 95 % of control | [12] 101 % of control

C=CCOCC(O)CN(C)C1CCCCC1 (centres undefined)
inactive: dose: 25.0 mg/kg/injection, schedule: Q01DX009 (ip), vehicle: saline 97 % of control | dose: 25.0 mg/kg/injection, schedule: Q04DX003 (ip), vehicle: saline 106 % of control | [13] 98 % of control | dose: 50.0 mg/kg/injection, schedule: Q04DX003 (ip), vehicle: saline 103 % of control | [4] 95 % of control | dose: 100.0 mg/kg/injection, schedule: Q04DX003 (ip), vehicle: saline 100 % of control and 104 % of control

COP1(=O)OC(C)C(C)O1 (centres undefined)
inactive: [14] 98 % of control | [15] 102 % of control | [16] 93 % of control

CCC(C(=O)OC)C(=O)c1ccccc1 (centres undefined)
inactive: [17] 107 % of control | [14] 102 % of control | [15] 107 % of control | [16] 96 % of control

O=C(O)CNC(=S)SCc1ccccc1
inactive: dose: 100.0 mg/kg/injection, schedule: Q04DX002 (ip), vehicle: gum acacia 97 % of control | dose: 200.0 mg/kg/injection, schedule: Q04DX002 (ip), vehicle: gum acacia 87 % of control | dose: 400.0 mg/kg/injection, schedule: Q04DX002 (ip), vehicle: gum acacia 97 % of control

O=[N+]([O-])c1ccc(O)c(C=NCCCN=Cc2cc([N+](=O)[O-])ccc2O)c1
inactive: [14] 90 % of control | [15] 102 % of control | [16] 96 % of control

[Cl][Pt][Cl].[NH-]CCN1CC1
inactive: dose: 5.0 mg/kg/injection, schedule: Q01DX009 (ip), vehicle: Klucel (hydroxypropylcellulose) (HPC) 114 % of control | dose: 10.0 mg/kg/injection, schedule: Q01DX009 (ip), vehicle: Klucel (hydroxypropylcellulose) (HPC) 110 % of control | dose: 20.0 mg/kg/injection, schedule: Q01DX009 (ip), vehicle: Klucel (hydroxypropylcellulose) (HPC) 98 % of control

C[n+]1cc2c(CO)cc(CO)cc2c2ccccc21
inactive: [9] 97 % of control | dose: 150.0 mg/kg/injection, schedule: Q01DX001 (ip), vehicle: saline 95 % of control | dose: 300.0 mg/kg/injection, schedule: Q01DX001 (ip), vehicle: saline 97 % of control

CCN(CC)C(=O)C(N)Cc1ccc(OC)c(N(CCCl)CCCl)c1 (centres undefined)
inactive: dose: 6.0 mg/kg/injection, schedule: Q01DX009 (ip), vehicle: saline 103 % of control | dose: 10.0 mg/kg/injection, schedule: Q01DX009 (ip), vehicle: saline 103 % of control | dose: 14.0 mg/kg/injection, schedule: Q01DX009 (ip), vehicle: saline 112 % of control | dose: 22.0 mg/kg/injection, schedule: Q01DX009 (ip), vehicle: saline 105 % of control | dose: 33.0 mg/kg/injection, schedule: Q01DX001 (ip), vehicle: saline 123 % of control | dose: 33.0 mg/kg/injection, schedule: Q01DX009 (ip), vehicle: saline 108 % of control | [17] 123 % of control | dose: 50.0 mg/kg/injection, schedule: Q01DX009 (ip), vehicle: carboxymethylcellulose (CMC) 104 % of control | [13] 116 % of control | dose: 75.0 mg/kg/injection, schedule: Q01DX009 (ip), vehicle: carboxymethylcellulose (CMC) 103 % of control | dose: 112.0 mg/kg/injection, schedule: Q01DX001 (ip), vehicle: saline 113 % of control | dose: 112.5 mg/kg/injection, schedule: Q01DX001 (ip), vehicle: carboxymethylcellulose (CMC) 116 % of control | dose: 150.0 mg/kg/injection, schedule: Q01DX001 (ip), vehicle: carboxymethylcellulose (CMC) 117 % of control
